Assay results published in ChEMBL document CHEMBL3885861, “Open TG-GATES”.

Species on record: Rattus norvegicus
Assay: Open TG-GATES - Regimen: Daily Repeat
Assay type: toxicity, organism-based, Sprague-Dawley
Design: regimen Daily Repeat, gender Male, age 6 weeks
Details: in vivo, po, route gavage; for APTT / Bas / Eos / Fbg / Hb / Ht / Lym / MCH / MCHC / MCV / Mono / Neu / PT / Plat / RBC / Ret / WBC: tissue Blood; for KIDNEY_L / KIDNEY_R / KIDNEY_TOTAL: tissue Kidney; for LIVER: tissue Liver; for A/G / ALP / ALT / AST / BUN / CRE / Ca / Cl / DBIL / GLC / IP / K / LDH / Na / PL / RALB / TBIL / TC / TG / TP / gamma-GTP: tissue Plasma
[1] = 0 mg/kg, 72 h, dose level Control, time 3 day
[2] = 0 mg/kg, […], dose level Control, time 7 day
[3] = 0 mg/kg, […], dose level Control, time 14 day
[4] = 0 mg/kg, […], dose level Control, time 28 day
[5] = 50 mg/kg, 72 h, dose level Low, time 3 day
[6] = 50 mg/kg, […], dose level Low, time 7 day
[7] = 50 mg/kg, […], dose level Low, time 14 day
[8] = 50 mg/kg, […], dose level Low, time 28 day

NNC(=O)c1ccncc1 [ISONIAZID]
TERMINAL_BW [1]: 219.4 g
APTT [1]: 14.3 s
Bas [1]: 0.2%
Eos [1]: 2%
Fbg [1]: 229.4 mg/dL
Hb [1]: 13.6 g/dL
Ht [1]: 40.8%
Lym [1]: 74%
MCH [1]: 21.7 pg
MCHC [1]: 33.2%
MCV [1]: 65.2 fL
Mono [1]: 8.8%
Neu [1]: 15.6%
PT [1]: 12.1 s
Plat [1]: 120.9 x10_4/uL
RBC [1]: 626.2 x10_4/ul
Ret [1]: 8.2%
WBC [1]: 101.8 x10_2/uL
KIDNEY_L [1]: 0.9 g
KIDNEY_R [1]: 1 g
KIDNEY_TOTAL [1]: 1.9 g
LIVER [1]: 11.3 g
A/G [1]: 1.8
ALP [1]: 836.8 IU/L
ALT [1]: 33.6 IU/L
AST [1]: 61.8 IU/L
BUN [1]: 19 mg/dL
CRE [1]: 0.5 mg/dL
Ca [1]: 10.8 mg/dL
Cl [1]: 103.8 meq/L
DBIL [1]: 0.068 mg/dL
GLC [1]: 209.2 mg/dL
IP [1]: 7.6 mg/dL
K [1]: 5.1 meq/L
LDH [1]: 102 IU/L
Na [1]: 139.4 meq/L
PL [1]: 163.4 mg/dL
RALB [1]: 3.8 g/dL
TBIL [1]: 0.3 mg/dL
TC [1]: 85.8 mg/dL
TG [1]: 110.2 mg/dL
TP [1]: 6 g/dL
gamma-GTP [1]: 1.6 IU/L
TERMINAL_BW [2]: 251.9 g
TERMINAL_BW [3]: 294 g
TERMINAL_BW [4]: 374.9 g
APTT [2]: 14.6 s
Bas [2]: 0%
Eos [2]: 1%
Fbg [2]: 235 mg/dL
Hb [2]: 13.8 g/dL
Ht [2]: 41.5%
Lym [2]: 76.8%
MCH [2]: 21.4 pg
MCHC [2]: 33.4%
MCV [2]: 64.2 fL
Mono [2]: 10.2%
Neu [2]: 11.6%
PT [2]: 12 s
Plat [2]: 127.4 x10_4/uL
RBC [2]: 646.4 x10_4/ul
Ret [2]: 6%
WBC [2]: 108.1 x10_2/uL
APTT [3]: 16.1 s
Bas [3]: 0%
Eos [3]: 1.2%
Fbg [3]: 224.2 mg/dL
Hb [3]: 15.1 g/dL
Ht [3]: 44.9%
Lym [3]: 78.2%
MCH [3]: 20.3 pg
MCHC [3]: 33.5%
MCV [3]: 60.6 fL
Mono [3]: 5.5%
Neu [3]: 14.8%
PT [3]: 11.8 s
Plat [3]: 114.6 x10_4/uL
RBC [3]: 740.8 x10_4/ul
Ret [3]: 3.9%
WBC [3]: 109.8 x10_2/uL
APTT [4]: 15.9 s
Bas [4]: 0%
Eos [4]: 1.2%
Fbg [4]: 227.4 mg/dL
Hb [4]: 15.5 g/dL
Ht [4]: 46%
Lym [4]: 85.8%
MCH [4]: 19.7 pg
MCHC [4]: 33.8%
MCV [4]: 58.2 fL
Mono [4]: 3.2%
Neu [4]: 9.2%
PT [4]: 12 s
Plat [4]: 106.3 x10_4/uL
RBC [4]: 790.6 x10_4/ul
Ret [4]: 2.5%
WBC [4]: 140.8 x10_2/uL
KIDNEY_L [2]: 1.1 g
KIDNEY_R [2]: 1.1 g
KIDNEY_TOTAL [2]: 2.2 g
KIDNEY_L [3]: 1.1 g
KIDNEY_R [3]: 1.1 g
KIDNEY_TOTAL [3]: 2.2 g
KIDNEY_L [4]: 1.3 g
KIDNEY_R [4]: 1.3 g
KIDNEY_TOTAL [4]: 2.6 g
LIVER [2]: 12.3 g
LIVER [3]: 13.3 g
LIVER [4]: 15.5 g
A/G [2]: 1.7
ALP [2]: 884.4 IU/L
ALT [2]: 33 IU/L
AST [2]: 56.6 IU/L
BUN [2]: 19.6 mg/dL
CRE [2]: 0.5 mg/dL
Ca [2]: 10.6 mg/dL
Cl [2]: 105 meq/L
DBIL [2]: 0.074 mg/dL
GLC [2]: 223.8 mg/dL
IP [2]: 8.4 mg/dL
K [2]: 5 meq/L
LDH [2]: 115.2 IU/L
Na [2]: 140.4 meq/L
PL [2]: 163 mg/dL
RALB [2]: 3.7 g/dL
TBIL [2]: 0.3 mg/dL
TC [2]: 81.6 mg/dL
TG [2]: 130.2 mg/dL
TP [2]: 5.9 g/dL
gamma-GTP [2]: 1.2 IU/L
A/G [3]: 1.6
ALP [3]: 783.8 IU/L
ALT [3]: 29.6 IU/L
AST [3]: 62 IU/L
BUN [3]: 19.2 mg/dL
CRE [3]: 0.6 mg/dL
Ca [3]: 10.4 mg/dL
Cl [3]: 106.8 meq/L
DBIL [3]: 0.002 mg/dL
GLC [3]: 213.2 mg/dL
IP [3]: 7.9 mg/dL
K [3]: 5.1 meq/L
LDH [3]: 160 IU/L
Na [3]: 139.4 meq/L
PL [3]: 151 mg/dL
RALB [3]: 3.6 g/dL
TBIL [3]: 0.3 mg/dL
TC [3]: 76.4 mg/dL
TG [3]: 144 mg/dL
TP [3]: 5.9 g/dL
gamma-GTP [3]: 0.4 IU/L
A/G [4]: 1.4
ALP [4]: 751.6 IU/L
ALT [4]: 26.8 IU/L
AST [4]: 56.4 IU/L
BUN [4]: 19.4 mg/dL
CRE [4]: 0.5 mg/dL
Ca [4]: 10 mg/dL
Cl [4]: 104.6 meq/L
DBIL [4]: 0.06 mg/dL
GLC [4]: 208.8 mg/dL
IP [4]: 7.2 mg/dL
K [4]: 4.4 meq/L
LDH [4]: 73.4 IU/L
Na [4]: 142.2 meq/L
PL [4]: 141.8 mg/dL
RALB [4]: 3.6 g/dL
TBIL [4]: 0.2 mg/dL
TC [4]: 70.6 mg/dL
TG [4]: 125.6 mg/dL
TP [4]: 6.2 g/dL
gamma-GTP [4]: 1.4 IU/L
TERMINAL_BW [5]: 220.3 g
APTT [5]: 14.6 s
Bas [5]: 0%
Eos [5]: 1.2%
Fbg [5]: 242.2 mg/dL
Hb [5]: 13.6 g/dL
Ht [5]: 40.6%
Lym [5]: 73.4%
MCH [5]: 21.8 pg
MCHC [5]: 33.4%
MCV [5]: 65.3 fL
Mono [5]: 11.8%
Neu [5]: 13.8%
PT [5]: 12 s
Plat [5]: 113 x10_4/uL
RBC [5]: 622.8 x10_4/ul
Ret [5]: 7.5%
WBC [5]: 85.3 x10_2/uL
KIDNEY_L [5]: 1 g
KIDNEY_R [5]: 1 g
KIDNEY_TOTAL [5]: 2 g
LIVER [5]: 11.3 g
A/G [5]: 1.8
ALP [5]: 862.8 IU/L
ALT [5]: 23.2 IU/L
AST [5]: 57 IU/L
BUN [5]: 16.6 mg/dL
CRE [5]: 0.5 mg/dL
Ca [5]: 10.7 mg/dL
Cl [5]: 104.6 meq/L
DBIL [5]: 0.008 mg/dL
GLC [5]: 225.2 mg/dL
IP [5]: 8.3 mg/dL
K [5]: 4.8 meq/L
LDH [5]: 108.6 IU/L
Na [5]: 140.2 meq/L
PL [5]: 145.4 mg/dL
RALB [5]: 3.8 g/dL
TBIL [5]: 0.3 mg/dL
TC [5]: 79.2 mg/dL
TG [5]: 98 mg/dL
TP [5]: 5.9 g/dL
gamma-GTP [5]: 1 IU/L
TERMINAL_BW [6]: 247.3 g
TERMINAL_BW [7]: 307.2 g
TERMINAL_BW [8]: 372.9 g
APTT [6]: 15.7 s
Bas [6]: 0%
Eos [6]: 1%
Fbg [6]: 230.4 mg/dL
Hb [6]: 13.8 g/dL
Ht [6]: 41.1%
Lym [6]: 80.8%
MCH [6]: 20.9 pg
MCHC [6]: 33.5%
MCV [6]: 62.3 fL
Mono [6]: 6.8%
Neu [6]: 11.2%
PT [6]: 12.1 s
Plat [6]: 125.4 x10_4/uL
RBC [6]: 661.6 x10_4/ul
Ret [6]: 6.1%
WBC [6]: 118.4 x10_2/uL
APTT [7]: 15.7 s
Bas [7]: 0%
Eos [7]: 1%
Fbg [7]: 227.8 mg/dL
Hb [7]: 14 g/dL
Ht [7]: 41.8%
Lym [7]: 79%
MCH [7]: 20.1 pg
MCHC [7]: 33.5%
MCV [7]: 60.1 fL
Mono [7]: 7.4%
Neu [7]: 12.8%
PT [7]: 12 s
Plat [7]: 118.6 x10_4/uL
RBC [7]: 697.4 x10_4/ul
Ret [7]: 5.1%
WBC [7]: 137 x10_2/uL
APTT [8]: 15.6 s
Bas [8]: 0%
Eos [8]: 1%
Fbg [8]: 227.4 mg/dL
Hb [8]: 14.7 g/dL
Ht [8]: 44.2%
Lym [8]: 86.2%
MCH [8]: 19.1 pg
MCHC [8]: 33.4%
MCV [8]: 57.3 fL
Mono [8]: 2.8%
Neu [8]: 10%
PT [8]: 12 s
Plat [8]: 102.2 x10_4/uL
RBC [8]: 771.2 x10_4/ul
Ret [8]: 3%
WBC [8]: 149.4 x10_2/uL
KIDNEY_L [6]: 1.1 g
KIDNEY_R [6]: 1.1 g
KIDNEY_TOTAL [6]: 2.2 g
KIDNEY_L [7]: 1.2 g
KIDNEY_R [7]: 1.3 g
KIDNEY_TOTAL [7]: 2.5 g
KIDNEY_L [8]: 1.4 g
KIDNEY_R [8]: 1.3 g
KIDNEY_TOTAL [8]: 2.7 g
LIVER [6]: 12 g
LIVER [7]: 14.1 g
LIVER [8]: 15.1 g
A/G [6]: 1.5
ALP [6]: 797.6 IU/L
ALT [6]: 20.6 IU/L
AST [6]: 60.6 IU/L
BUN [6]: 18.4 mg/dL
CRE [6]: 0.5 mg/dL
Ca [6]: 10.5 mg/dL
Cl [6]: 105.6 meq/L
DBIL [6]: 0.08 mg/dL
GLC [6]: 227.2 mg/dL
IP [6]: 8.2 mg/dL
K [6]: 5 meq/L
LDH [6]: 113 IU/L
Na [6]: 139 meq/L
PL [6]: 147 mg/dL
RALB [6]: 3.6 g/dL
TBIL [6]: 0.3 mg/dL
TC [6]: 73.2 mg/dL
TG [6]: 100.4 mg/dL
TP [6]: 6.1 g/dL
gamma-GTP [6]: 1 IU/L
A/G [7]: 1.6
ALP [7]: 683 IU/L
ALT [7]: 19 IU/L
AST [7]: 58.2 IU/L
BUN [7]: 16 mg/dL
CRE [7]: 0.6 mg/dL
Ca [7]: 10.5 mg/dL
Cl [7]: 105.8 meq/L
DBIL [7]: 0 mg/dL
GLC [7]: 203 mg/dL
IP [7]: 8.1 mg/dL
K [7]: 5.1 meq/L
LDH [7]: 101.6 IU/L
Na [7]: 138.2 meq/L
PL [7]: 138.6 mg/dL
RALB [7]: 3.7 g/dL
TBIL [7]: 0.3 mg/dL
TC [7]: 68.8 mg/dL
TG [7]: 119.2 mg/dL
TP [7]: 6 g/dL
gamma-GTP [7]: 0.4 IU/L
A/G [8]: 1.4
ALP [8]: 560.2 IU/L
ALT [8]: 14.2 IU/L
AST [8]: 55.2 IU/L
BUN [8]: 20.4 mg/dL
CRE [8]: 0.6 mg/dL
Ca [8]: 10.1 mg/dL
Cl [8]: 104.8 meq/L
DBIL [8]: 0.042 mg/dL
GLC [8]: 208.6 mg/dL
IP [8]: 7.3 mg/dL
K [8]: 4.5 meq/L
LDH [8]: 87.4 IU/L
Na [8]: 141.4 meq/L
PL [8]: 138.6 mg/dL
RALB [8]: 3.6 g/dL
TBIL [8]: 0.2 mg/dL
TC [8]: 66.4 mg/dL
TG [8]: 131.2 mg/dL
TP [8]: 6.1 g/dL
gamma-GTP [8]: 1.4 IU/L
